{"source": "patent US20130216600A1", "about": "“ANTIMICROBIAL NANOPARTICLE CONJUGATES” (priority 2010, published 2013)", "key": {"[1]": {"test_system": "Klebsiella pneumoniae ATCC 10031", "assay": "MIC of DexOx-antibiotic conjugates and free drugs", "format": "cell-based", "conditions": "K. pneumoniae", "procedure": "(§1) To evaluate the antibacterial activity of DexOx-Amp, DexOx-Van and DexOx-Gen, the minimal inhibitory concentration (MIC) was determined for each of the conjugates and compared with each of MIC values obtained for Amp, Van and Gen. The tests were performed against 5×10^5 cells/mL (in 0.2 mL of medium) of Staphylococcus aureus ATCC 6538 (S. aureus), Pseudomonas aeruginosa ATCC 15442 (P. aeruginosa), Klebsiella pneumoniae ATCC 10031 (K. pneumoniae) or Escherichia coli ATCC 25922 (E. coli), with concentrations of the drug between 0 and 120 μg/mL. The microorganisms were incubated at 37° C. for 18 h, and the absorbance at 600 nm was monitored every 30 min."}, "[2]": {"test_system": "Pseudomonas aeruginosa ATCC 15442", "assay": "MIC of DexOx-antibiotic conjugates and free drugs", "format": "cell-based", "conditions": "P. aeruginosa", "procedure": "as §1"}, "Candida albicans": {"test_system": "Candida albicans", "assay": "MIC of AmB and DexOx-AmB conjugates (NCCLS M27A2E)", "format": "cell-based", "conditions": "48 hours", "description": "The “minimal inhibitory concentration” or “MIC” is defined as the lowest drug concentration that results in complete inhibition of visible growth of a microorganism."}, "C. albicans": {"test_system": "C. albicans", "assay": "Spectrum of antifungal activity, MIC after 8 hours", "format": "cell-based", "conditions": "formulation"}, "C. glabrata": {"test_system": "C. glabrata", "assay": "Spectrum of antifungal activity, MIC after 8 hours", "format": "cell-based", "conditions": "formulation", "procedure": "(§2) In order to determine the spectrum of antifungal activity of the nanoparticles functionalized with amphotericin B, they were tested against four strains of Candida, namely: C parapsilosis, C krusei, C glabrata, and C tropicalis. The MIC values were determined after 8 hours of incubation with AmB, DexOx-AmB conjugate, unconjugated silica nanoparticles, and silica nanoparticles functionalized with DexOx-AmB."}, "C. krusei": {"test_system": "C. krusei", "assay": "Spectrum of antifungal activity, MIC after 8 hours", "format": "cell-based", "conditions": "formulation", "procedure": "as §2"}, "C. parapsilosis": {"test_system": "C. parapsilosis", "assay": "Spectrum of antifungal activity, MIC after 8 hours", "format": "cell-based", "conditions": "formulation", "procedure": "as §2"}, "C. tropicalis": {"test_system": "C. tropicalis", "assay": "Spectrum of antifungal activity, MIC after 8 hours", "format": "cell-based", "conditions": "formulation", "procedure": "as §2"}, "[3]": {"conditions": "The Merck Index 1989; cited from earlier work"}}, "note": "Where “and” joins values, the source holds several entries; their conditions need not be identical. Equal values may be shown once.", "data": [{"compound": "CC1(C)S[C@@H]2[C@H](NC(=O)[C@H](N)c3ccccc3)C(=O)N2[C@H]1C(=O)O", "note": "[Amp, ampicillin]", "values": [{"measurement": "MIC", "setting": "[1]; Klebsiella pneumoniae, ATCC10031, free drug", "value": "20 to 40", "unit": "µg/mL"}, {"measurement": "MIC", "setting": "[2]; Pseudomonas aeruginosa, ATCC15442, free drug", "value": "> 120", "unit": "µg/mL"}]}, {"compound": "amphotericin B [AmB]", "values": [{"measurement": "MIC (μg of conjugate/ml)", "setting": "Candida albicans; 30° C., n=6", "value": "0.9 ± 0.2 μg of conjugate/ml"}, {"measurement": "MIC", "setting": "Candida albicans; unconjugated (soluble) AmB", "value": "0.9 µg/mL and 0.9 ± 0.2 µg/mL"}, {"measurement": "Minimum Inhibitory Concentration (MIC)", "setting": "C. albicans", "value": 0.3}, {"measurement": "Minimum Inhibitory Concentration (MIC)", "setting": "C. glabrata", "value": 0.03}, {"measurement": "Minimum Inhibitory Concentration (MIC)", "setting": "C. krusei", "value": 0.1}, {"measurement": "Minimum Inhibitory Concentration (MIC)", "setting": "C. parapsilosis", "value": 0.3}, {"measurement": "Minimum Inhibitory Concentration (MIC)", "setting": "C. tropicalis", "value": 0.08}, {"measurement": "water solubility limit", "setting": "[3]", "value": 100, "unit": "µg/mL"}]}, {"compound": "gentamicin", "values": [{"measurement": "MIC free drug (μg/mL)", "setting": "[1]", "value": "MIC < 2 μg/mL"}, {"measurement": "MIC free drug (μg/mL)", "setting": "[2]", "value": "MIC < 2 μg/mL"}]}]}
